Common to all, as to test: microbe, parasite or virus in culture
Common to all, as to type: cell-based, Staphylococcus aureus

For assay [1], the system named is MRSA WHO-2. The following applies: read-out: MIC for S. aureus strains, WHO-2. The source says:
(§1) Secondary structure of rpoD mRNA predicted by RNA structure 4.6 software. […] Building from evidence that 12-base antisense PNAs was an effective length, five plausible target sites located in the region that satisfied both above aspects were chosen for synthesis of complementary antisense PNAs at 12-base length. Effective target site in rpoD was verified by modified MIC test of PPNA in four S. aureus strains with different characteristics in resistance phenotype. All PNAs used are covalently conjugated with the same cell penetrating peptide (KFF)3K at the carbon terminus (corresponding to the 3′ end of a conventional oligonucleotide).
(§2) Optimal anti-rpoD PPNA was selected by minimal inhibitory concentration (MIC) results determined for clinical isolates of pathogenic S. aureus species.
(§3) MICs were determined twice by the microdilution assay in sterilized 96-well polypropylene microtiter plates according to the broth microdilution guideline based on Good et al.. Briefly, single colony overnight culture of subjected bacterial cells was diluted to give a final inoculation at 10^5 CFU/mL in duplicate 100 µL Mueller Hinton (MH) broth in a low-binding 96-well microtiter plate. Stocks of PPNA, Scr PPNA and CPPs were added immediately to the indicated final concentrations. Plates were incubated at 35°C in aerobic environment for 24 h of overnight culture. MICs were the lowest PNA concentrations that prevented bacterial growth by visual inspection after overnight (24 h) growth. To verify the specific antisense effect, peptide was also conjugated to a scrambled PNA with a base sequence that was not complementary to the selected target site of rpoD mRNA. To control for nonspecific toxicity, the MIC of the control CPPs (KFF)3K and (RXR)4XB in all cases, was above the limit of measurement, which was 60 or 30 µM.

In assay [2] the test system is S. aureus ATCC29213. The following applies: read-out: MIC for S. aureus strains, ATCC 29213.
From the text: as §1, §2, §3

Assay [3] has as its system MRSA XIJING (MDR clinical isolate). The following applies: broth microdilution, MH broth, inoculum 10^5 CFU/mL, 35°C, 24 h, visual inspection, determined twice, read-out: MIC for S. aureus strains, XIJING.
From the text: as §1, §2, §3

In assay [4] the test system is MRSA/VISA Mu50. To be noted: broth microdilution, MH broth, inoculum 10^5 CFU/mL, 35°C, 24 h, visual inspection, determined twice, read-out: MIC for S. aureus strains, Mu 50.
From the text: as §1, §2, §3
On the technique in general: In broth dilution the organism is exposed to a series of concentrations in liquid medium.

[5] abbreviates: Staphylococcus aureus, broth microdilution, MH broth, inoculum 10^5 CFU/mL, 35°C, 24 h, visual inspection, determined twice, MRSA.
Where [6] appears, read: Staphylococcus aureus, ATCC29213, broth microdilution, MH broth, inoculum 10^5 CFU/mL, 35°C, 24 h, visual inspection, determined twice, antibiotic sensitive QC strain.

Each structure is given as a SMILES string. Converted amounts (≈) assume the structure as drawn. Like-named read-outs stand apart in the source and are kept apart here. Square brackets hold non-standard residues; d marks the D form. Peptide text beside a SMILES is read from it. Ahx = NCCCCCC(=O)O; βAla = NCCC(=O)O Some results are limits rather than exact numbers.

For `NCCCC[C@H](NC(=O)[C@H](Cc1ccccc1)NC(=O)[C@H](Cc1ccccc1)NC(=O)[C@H](CCCCN)NC(=O)[C@H](Cc1ccccc1)NC(=O)[C@H](Cc1ccccc1)NC(=O)[C@H](CCCCN)NC(=O)[C@H](Cc1ccccc1)NC(=O)[C@H](Cc1ccccc1)NC(=O)[C@@H](N)CCCCN)C(=O)O` [(KFF)3K] (H-KFFKFFKFFK-OH), the MIC in assay [1] (WHO-2, 24 h) is over 60 µM; in assay [2] (ATCC29213, 24 h), over 60 µM.

In the case of `N=C(N)NCCC[C@H](NC(=O)CCCCCNC(=O)[C@H](CCCNC(=N)N)NC(=O)[C@H](CCCNC(=N)N)NC(=O)CCCCCNC(=O)[C@H](CCCNC(=N)N)NC(=O)[C@H](CCCNC(=N)N)NC(=O)CCCCCNC(=O)[C@H](CCCNC(=N)N)NC(=O)[C@H](CCCNC(=N)N)NC(=O)CCCCCNC(=O)[C@@H](N)CCCNC(=N)N)C(=O)NCCCCCC(=O)NCCC(=O)O` [(RXR)4XB] (H-R[Ahx]RR[Ahx]RR[Ahx]RR[Ahx]R[Ahx][βAla]-OH), the MIC in assay [1] (WHO-2, 24 h) is over 30 µM; in assay [3], over 30 µM; in assay [4], over 30 µM; in assay [2] (ATCC29213, 24 h) it was over 30 µM.

As to `CC1(C)S[C@@H]2[C@H](NC(=O)[C@H](N)c3ccccc3)C(=O)N2[C@H]1C(=O)O` [ampicillin], the MIC in assay [1] (setting [5]) was 256 µM (≈ 89.4 µg/mL); in assay [3] (Staphylococcus aureus) it was over 1020 µM; in assay [4] (Staphylococcus aureus) it was over 1020 µM; in assay [2] (setting [6]) it was 1 µM (≈ 0.349 µg/mL).

For the molecule `CC(C)(O/N=C(\C(=O)N[C@@H]1C(=O)N2C(C(=O)[O-])=C(C[n+]3ccccc3)CS[C@H]12)c1csc(N)n1)C(=O)O` [ceftazidine], the MIC in assay [1] (broth microdilution, MH broth, inoculum 10^5 CFU/mL, 35°C, 24 h, visual inspection, determined twice, MRSA) is 256 µM (≈ 140 µg/mL); in assay [3], over 1024 µM; in assay [4], 1024 µM (≈ 560 µg/mL); in assay [2] (broth microdilution, MH broth, inoculum 10^5 CFU/mL, 35°C, 24 h, visual inspection, determined twice, antibiotic sensitive QC strain), 8 µM (≈ 4.37 µg/mL).

On to `Cc1onc(-c2ccccc2)c1C(=O)N[C@@H]1C(=O)N2[C@@H]1SC(C)(C)[C@@H]2C(=O)O` [oxacillin], for which the MIC in assay [1] (setting [5]) was 512 µM (≈ 206 µg/mL); in assay [3] (Staphylococcus aureus), over 1020 µM; in assay [4] (Staphylococcus aureus), over 1020 µM; in assay [2] (setting [6]) it was 0.5 µM (≈ 0.201 µg/mL).
